20 molecules from patent US8785460B2, “Tricyclic compounds and use thereof” (Takeda Pharmaceutical Company Limited, priority 2008, dated 2014) can be followed below.

One data set deals with T1, human CRF1 receptor (Homo sapiens, UniProt P34998).
T1 construct: expressed in transfected cells; host or cells: CHO cells (membrane fraction)
T1 sequence (P34998 24-415): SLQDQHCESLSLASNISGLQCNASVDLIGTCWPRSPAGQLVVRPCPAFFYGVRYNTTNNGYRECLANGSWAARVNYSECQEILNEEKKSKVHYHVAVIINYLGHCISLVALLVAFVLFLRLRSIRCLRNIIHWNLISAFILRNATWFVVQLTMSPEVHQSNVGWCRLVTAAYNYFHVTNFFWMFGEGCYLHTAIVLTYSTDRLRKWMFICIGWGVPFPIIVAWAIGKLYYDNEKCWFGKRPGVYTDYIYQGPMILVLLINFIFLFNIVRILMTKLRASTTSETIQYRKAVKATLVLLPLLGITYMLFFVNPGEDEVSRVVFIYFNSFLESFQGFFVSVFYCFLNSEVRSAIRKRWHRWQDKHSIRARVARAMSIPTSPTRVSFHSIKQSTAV
Kind of data set: Measurement of CRF Binding Inhibitory Rate (receptor binding experiment with 125I-CRF). The conditions noted are these: human CRF1 receptor expressing CHO cellular membrane fraction, 50 pM 125I-CRF, room temperature 1.5 hr, 0.05 nM to 10 μM of compound; read-out: IC50 values (CRF binding inhibition).

For the molecule `CCC(O)c1ccc(Cl)c2nc3n(c12)CCCN3c1ccc(Cl)cc1C(F)(F)F` (stereo not shown) [Example 131, 1-{9-Chloro-1-[4-chloro-2-(trifluoromethyl)phenyl]-1,2,3,4-tetrahydropyrimido[1,2-a]benzimidazol-6-yl}propan-1-ol], the melting point was 220 to 222 °C. In addition, the IC50 at human CRF1 receptor was less than 1000 nM.

In turn, `CCC(F)c1ccc(Cl)c2nc3n(c12)CCCN3c1ccc(Cl)cc1Cl` (stereo not shown) [Example 304, 9-Chloro-1-(2,4-dichlorophenyl)-6-(1-fluoropropyl)-1,2,3,4-tetrahydropyrimido[1,2-a]benzimidazole] came in with a melting point of 172 to 174 °C. In addition, the IC50 on human CRF1 receptor was less than 1000 nM.

As to `CC(=O)OC(c1ccc(Cl)c2nc3n(c12)CCCN3c1ccc(Cl)cc1Cl)C(F)(F)F` (stereo not shown) [Example 311, 1-[9-Chloro-1-(2,4-dichlorophenyl)-1,2,3,4-tetrahydropyrimido[1,2-a]benzimidazol-6-yl]-2,2,2-trifluoroethyl acetate], the melting point fell in the range of 197 to 199 °C. Besides, the IC50 on human CRF1 receptor was less than 1000 nM.

Molecule `CS(=O)(=O)NC(c1ccc(Cl)c2nc3n(c12)CCCN3c1c(Cl)cc(Cl)cc1Cl)C(F)(F)F` (stereo not shown) [Example 416, N-{1-[9-Chloro-1-(2,4,6-trichlorophenyl)-1,2,3,4-tetrahydropyrimido[1,2-a]benzimidazol-6-yl]-2,2,2-trifluoroethyl}methanesulfonamide] came in with a melting point of 290 to 291 °C. The half-maximal inhibitory concentration (IC50) at human CRF1 receptor is less than 1000 nM.

`CCC(OC(C)=O)c1ccc(Cl)c2nc3n(c12)CCCN3c1ccc(N(C)C)nc1C` (stereo not shown) [Example 166, 1-{9-Chloro-1-[6-(dimethylamino)-2-methylpyridin-3-yl]-1,2,3,4-tetrahydropyrimido[1,2-a]benzimidazol-6-yl}propyl acetate] showed a melting point of 165 to 166 °C. The IC50 on human CRF1 receptor is less than 1000 nM.

Regarding `CC/C(=N/OC)c1ccc(Cl)c2nc3n(c12)CCCN3c1ccc(Cl)cc1Cl` [Example 122, (1Z)-1-[9-Chloro-1-(2,4-dichlorophenyl)-1,2,3,4-tetrahydropyrimido[1,2-a]benzimidazol-6-yl]propan-1-one O-methyloxime], the melting point is 144 to 145 °C. The 50% inhibitory concentration (IC50) at human CRF1 receptor was less than 1000 nM.

`CCC(CC)c1ccc(Cl)c2nc3n(c12)CCCCN3c1c(C)noc1C` [Example 343, 10-Chloro-1-(3,5-dimethylisoxazol-4-yl)-7-(1-ethylpropyl)-2,3,4,5-tetrahydro-1H-[1,3]diazepino[1,2-a]benzimidazole] showed a melting point of 163 to 164 °C. For the same molecule, the IC50 at human CRF1 receptor was less than 1000 nM.

With `CC(C)(O)c1ccc(Cl)c2nc3n(c12)CCCN3c1ccc(Cl)cc1Cl` [Example 106, 2-[9-Chloro-1-(2,4-dichlorophenyl)-1,2,3,4-tetrahydropyrimido[1,2-a]benzimidazol-6-yl]propan-2-ol], the melting point lay in the range of 216 to 218 °C. Also, at human CRF1 receptor, the IC50 is less than 1000 nM.

The molecule `COc1ccc(C(O)(C2CC2)C2CC2)c2c1nc1n2CCCN1c1ccc(Cl)cc1Cl` [Example 369, Dicyclopropyl[1-(2,4-dichlorophenyl)-9-methoxy-1,2,3,4-tetrahydropyrimido[1,2-a]benzimidazol-6-yl]methanol] returned a melting point of 219 to 220 °C. For the same molecule, the IC50 on human CRF1 receptor was less than 1000 nM.

The molecule `FC(F)(F)C(OC1CC1)c1ccc(Cl)c2nc3n(c12)CCCN3c1ccc(Cl)cc1Cl` (stereo not shown) [Example 308, 9-Chloro-6-[1-(cyclopropyloxy)-2,2,2-trifluoroethyl]-1-(2,4-dichlorophenyl)-1,2,3,4-tetrahydropyrimido[1,2-a]benzimidazole] showed a melting point of 197 to 200 °C. Further, the IC50 on human CRF1 receptor is less than 1000 nM.

As to `Cc1cc(OC(C)C)ccc1N1CCCn2c1nc1c(Cl)ccc(C(OC(F)F)C(F)(F)F)c12` (stereo not shown) [Example 357, 9-Chloro-6-[1-(difluoromethoxy)-2,2,2-trifluoroethyl]-1-[2-methyl-4-(propan-2-yloxy)phenyl]-1,2,3,4-tetrahydropyrimido[1,2-a]benzimidazole], the melting point was in the range of 198 to 204 °C. Besides, the IC50 at human CRF1 receptor was less than 1000 nM.

In the case of `CCC(NC(=O)CC(F)(F)F)c1ccc(Cl)c2nc3n(c12)CCCN3c1ccc(Cl)cc1Cl` (stereo not shown) [Example 447, N-{1-[9-Chloro-1-(2,4-dichlorophenyl)-1,2,3,4-tetrahydropyrimido[1,2-a]benzimidazol-6-yl]propyl}-3,3,3-trifluoropropanamide], the melting point was 285 to 290 °C. In addition, at human CRF1 receptor, the IC50 was less than 1000 nM.

`CCN(CC)c1cccc2nc3n(c12)CC(CO)N3c1ccc(Cl)cc1Cl` (stereo not shown) [Example 76, [1-(2,4-Dichlorophenyl)-5-(diethylamino)-2,3-dihydro-1H-imidazo[1,2-a]benzimidazol-2-yl]methanol] registered a melting point of 187 to 190 °C. The IC50 at human CRF1 receptor is less than 1000 nM.

With `CCC(CC)c1ccc(Cl)c2nc3n(c12)CC(=O)N3c1ccc(Cl)cc1Cl` [Example 4, 8-Chloro-1-(2,4-dichlorophenyl)-5-(1-ethylpropyl)-1H-imidazo[1,2-a]benzimidazol-2(3H)-one], the melting point fell in the range of 200 to 202 °C. Besides, the IC50 at human CRF1 receptor was less than 1000 nM.

As for `CCC(CCOC)c1ccc(Cl)c2nc3n(c12)CCCN3c1ccc(Cl)cc1Cl` (stereo not shown) [Example 453, 9-Chloro-1-(2,4-dichlorophenyl)-6-(1-ethyl-3-methoxypropyl)-1,2,3,4-tetrahydropyrimido[1,2-a]benzimidazole], the melting point lay within 144 to 146 °C. Also, the IC50 at human CRF1 receptor is less than 1000 nM.

As to `CCc1cc(CC)n(-c2ccc(Cl)c3nc4n(c23)CCCN4c2ccc(Cl)cc2Cl)n1` [Example 197, 9-Chloro-1-(2,4-dichlorophenyl)-6-(3,5-diethyl-1H-pyrazol-1-yl)-1,2,3,4-tetrahydropyrimido[1,2-a]benzimidazole], the melting point fell in the range of 185 to 187 °C. Further, the IC50 at human CRF1 receptor is less than 1000 nM.

Regarding `CCC(NC(=O)C(F)F)c1ccc(Cl)c2nc3n(c12)CCCN3c1ccc(Cl)cc1Cl` (stereo not shown) [Example 463, N-{1-[9-Chloro-1-(2,4-dichlorophenyl)-1,2,3,4-tetrahydropyrimido[1,2-a]benzimidazol-6-yl]propyl}-2,2-difluoroacetamide], the melting point lay in the range of 248 to 250 °C. The IC50 at human CRF1 receptor is less than 1000 nM.

Take `CCN(CC)c1cccc2nc3n(c12)CCCCCN3c1ccc(Cl)cc1Cl` [Example 102, 1-(2,4-Dichlorophenyl)-N,N-diethyl-1,2,3,4,5,6-hexahydro[1,3]diazocino[1,2-a]benzimidazol-8-amine]: the melting point lay in the range of 120 to 121 °C. For the same molecule, the IC50 at human CRF1 receptor is less than 1000 nM.

On to `COC(c1ccc(Cl)c2nc3n(c12)CCCN3c1ccc(Cl)cc1C(F)(F)F)C1CC1` (stereo not shown) [Example 134, 9-Chloro-1-[4-chloro-2-(trifluoromethyl)phenyl]-6-[cyclopropyl(methoxy)methyl]-1,2,3,4-tetrahydropyrimido[1,2-a]benzimidazole], for which the melting point fell in the range of 208 to 209 °C. The IC50 on human CRF1 receptor was less than 1000 nM.

The molecule `CCCC(OC)c1ccc(Cl)c2nc3n(c12)CCCN3c1ccc(Cl)cc1Cl` (stereo not shown) [Example 118, 9-Chloro-1-(2,4-dichlorophenyl)-6-(1-methoxybutyl)-1,2,3,4-tetrahydropyrimido[1,2-a]benzimidazole] returned a melting point of 139 to 140 °C. On human CRF1 receptor, the IC50 was less than 1000 nM.
